Results reported in US20150031554A1, “EXTRACELLULAR TELOMERE ASSAY” (The UAB Research Foundation, priority 2012, published 2015).

Key:
G-quadruplex = details: versus duplex, single strand, and hairpins; method of Balasubramanian et al.; cited from earlier work
[1] = system: U373, a human brain cancer cell line; assay: Extracellular telomere release into conditioned media (qPCR); assay type: cell-based; details: in response to doxorubicin treatment (FIG. 2A)
Experimental: (§1) The samples to be tested were centrifuged at 1200×g for 6 minutes to remove residual cells. The supernatant was removed and centrifuged at 12,000× for 12 minutes to remove cellular debris. DNA was isolated from the final supernatant using a Qiagen DNA isolation kit. The DNA concentration of each sample was determined with the highly sensitive pico-green fluorometric assay (Invitrogen; Carlsbad, Calif.).
(§2) The obtained purified cell-free DNA was assayed for extracellular telomere sequences. Extracellular telomeres were measured using quantitative PCR (qPCR) with the widely accepted method of Cawthon (“Telomere measurement by quantitative PCR,” Nucleic Acids Research, 30:e47 (2002)). Other DNA sequences (actin, BRCA 1, alpha satellite DNA, and Alu repeats) were analyzed using published primers and conditions. Normal human genomic DNA (Roche; Basel, Switzerland) was used to create a telomere qPCR standard curve for the clinical specimens. For mouse standard curves, normal mouse genomic DNA isolated from murine peripheral blood cells was used.

[2] = system: D54, a human brain cancer cell line; assay: as above; assay type: cell-based; details: in response to doxorubicin treatment (FIG. 2B)
Experimental: as §1, §2

[3] = system: human MDA-MB-23 1 breast cancer cells; assay: Extracellular telomere release into cell-free conditioned media (qPCR); assay type: cell-based
Experimental: as §1, §2

SMILES | selectivity of capture (G-quadruplex) | extracellular telomere release [1] | extracellular telomere release [2] | extracellular telomere release ([3]; doxorubicin 10^−5 M, indicated times, Alu and alpha satellite sequences as controls (FIG. 1)) | telomere enrichment in cell-free conditioned media ([3]; qPCR, compared with untreated cells or cells subjected to hypoxia, 2 independent experiments (FIG. 5))
NCCOc1cc(C(=O)Nc2cc(OCCN)c3ccccc3n2)nc(C(=O)Nc2cc(OCCN)c3ccccc3n2)c1 [compound 2, pyridostatin] | selective for G-quadruplex capture over other DNA structural motifs |  |  |  | 
COc1cccc2c1C(=O)c1c(O)c3c(c(O)c1C2=O)C[C@@](O)(C(=O)CO)C[C@@H]3O[C@H]1C[C@H](N)[C@H](O)[C@H](C)O1 [doxorubicin] |  | extracellular telomere release | extracellular telomere release | specifically released | highly enriched
